Values of other authors as cited in publication PMC9227781, “Inhibitors of O-Acetylserine Sulfhydrylase with a Cyclopropane-Carboxylic Acid Scaffold Are Effective Colistin Adjuvants in Gram Negative Bacteria” (Pharmaceuticals, 2022).

Experiments:
StOASS-A = biological target: T1, StOASS-A (Salmonella typhimurium, UniProt P0A1E3); set-up: method as in PMID 26894308; conditions: read-out: KD toward isoform A from S. Typhimurium; cited from earlier work
T1 construct: His-tag (with TEV site) (cleaved yes); made in house; host or cells: E. coli Rosetta (DE3)
T1 sequence (P0A1E3 whole entry, canonical isoform): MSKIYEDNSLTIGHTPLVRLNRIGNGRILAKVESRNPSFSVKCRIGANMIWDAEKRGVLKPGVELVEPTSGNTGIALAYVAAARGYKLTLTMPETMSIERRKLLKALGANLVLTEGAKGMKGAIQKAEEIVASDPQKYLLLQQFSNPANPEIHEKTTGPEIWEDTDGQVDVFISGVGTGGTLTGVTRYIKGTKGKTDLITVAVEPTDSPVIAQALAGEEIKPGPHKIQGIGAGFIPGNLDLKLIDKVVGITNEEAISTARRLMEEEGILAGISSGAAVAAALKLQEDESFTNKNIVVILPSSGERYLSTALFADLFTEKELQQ

[1] = tested on: all bacterial species considered in that study; set-up: method as in PMID 33513010; conditions: cited from earlier work
StOASS-B = biological target: T2, StOASS-B (Salmonella typhimurium, UniProt P29848); set-up: method as in PMID 26894308; conditions: read-out: KD toward isoform B from S. Typhimurium; cited from earlier work
T2 construct: His-tag (with TEV site) (cleaved yes); made in house; host or cells: E. coli Rosetta (DE3)
T2 sequence (P29848 1-303): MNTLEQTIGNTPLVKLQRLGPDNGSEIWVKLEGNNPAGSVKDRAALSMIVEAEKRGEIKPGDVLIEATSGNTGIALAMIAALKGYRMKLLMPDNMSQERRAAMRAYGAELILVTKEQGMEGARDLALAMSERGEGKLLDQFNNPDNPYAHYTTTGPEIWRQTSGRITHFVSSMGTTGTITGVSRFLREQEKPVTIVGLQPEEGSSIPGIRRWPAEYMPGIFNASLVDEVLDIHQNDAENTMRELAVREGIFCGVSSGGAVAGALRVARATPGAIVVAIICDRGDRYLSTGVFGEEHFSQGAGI

SMILES: Cc1ccc(C[C@@]2(C(=O)O)C[C@H]2c2ccccc2)cc1 [UPAR415]
- Kd (StOASS-A): 28 nM
- effect as colistin adjuvant [1]: synergistic or additive effect
- Kd (StOASS-B): 490 nM
